This passage reports GI50 and TGI results from PubChem BioAssay (NCI).

Where “and” joins values, the source holds several entries; their conditions need not be identical. Equal entries are not always repeated.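 Following 48 hours of exposure in 96-well plates, responses at five concentrations were used to interpolate endpoints linearly. GI50 is the concentration that inhibits growth by half. The concentration for full growth arrest is given as TGI.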

Among the test systems are HOP-62 NSCLC; HCT-116 colon; PC-3 prostate; UACC-62 melanoma; SN12C renal; A498 renal; T-47D breast; UO-31 renal; HOP-92 NSCLC; HT29 colon.
What all share (experiment): DTP human tumour cell line panel, 48 h

Take `O=C1C(Cl)=C(Nc2cccc(O)c2)C(=O)N1Cc1ccc(Cl)cc1`: the GI50 in the assay on HOP-62 NSCLC is 4.55 µM; in the assay on HCT-116 colon, 3.66 µM; with PC-3 prostate, 3.45 µM; in the assay on UACC-62 melanoma it was 1.27 µM; with SN12C renal, 2.72 µM; with A498 renal, 5 µM. Further, the GI50 was 10.7 µM with T-47D breast and 10.3 µM in the assay with UO-31 renal. Moreover, the TGI in the assay with HOP-62 NSCLC came out at 23 µM; in the assay with HCT-116 colon, 25 µM; in the assay with PC-3 prostate, 86.9 µM; in the assay on UACC-62 melanoma it was 4.79 µM; in the assay on SN12C renal, 8.5 µM; in the assay with A498 renal, 21.8 µM. Further, the concentration for total growth inhibition (TGI) with T-47D breast was 54 µM; in the assay on UO-31 renal it was more than 100 µM.

Take `N#C/C(=C\Nc1ccccn1)C(=O)c1ccco1`: the TGI with HOP-62 NSCLC, in the assay on HCT-116 colon, in the assay with PC-3 prostate, in the assay with UACC-62 melanoma, with SN12C renal and in the assay on A498 renal was more than 100 µM in each case. Also, the TGI in the assay on HOP-92 NSCLC, with UO-31 renal and with HT29 colon was more than 100 µM throughout.

Turning to `Cc1cc(Oc2cnc(=O)[nH]c2)cs1`, the total growth inhibition concentration (TGI) in the assay with HOP-62 NSCLC, in the assay on HCT-116 colon, in the assay on PC-3 prostate, in the assay on UACC-62 melanoma, in the assay with SN12C renal and with A498 renal was more than 100 µM throughout. Further, the TGI with T-47D breast, with UO-31 renal and in the assay with HT29 colon was more than 100 µM throughout.

In the case of `CN1CCC(C(=O)Nc2n[nH]c3nc(-c4ccc(O)cc4)c(Br)cc23)CC1`, the GI50 with HOP-62 NSCLC is 2.39 µM and 2.43 µM; with HCT-116 colon it was 0.776 µM and 0.855 µM; in the assay with PC-3 prostate it was 1.08 µM and 1.64 µM; in the assay on UACC-62 melanoma it was 2.85 µM and 3.83 µM; in the assay with SN12C renal, 1.76 µM and 4.18 µM; in the assay on T-47D breast, 1.12 µM and 1.72 µM. Further, the GI50 in the assay on HOP-92 NSCLC was 0.97 µM; in the assay with UO-31 renal, 6.85 µM and 7.86 µM; with HT29 colon it was 4.11 µM and 5.33 µM. Also, the TGI in the assay on HOP-62 NSCLC was > 22.6 µM and 15.8 µM; in the assay with HCT-116 colon, more than 25 µM; with PC-3 prostate it was more than 22.2 µM; with UACC-62 melanoma it was 6.87 µM and 8.81 µM; with SN12C renal, more than 25 µM; in the assay on T-47D breast it was more than 16.9 µM. Further, the TGI was 5.04 µM with HOP-92 NSCLC; more than 22.4 µM with UO-31 renal; 12.1 µM and 16.1 µM in the assay on HT29 colon.

For the compound `CC1(C)N=C(N)N=C(N)N1c1ccc(CCc2ccc(Cl)cc2S(=O)(=O)F)c(Cl)c1`, the GI50 was 7 µM in the assay on HOP-62 NSCLC; 2.56 µM in the assay with HCT-116 colon; 6.62 µM in the assay with PC-3 prostate; 4.57 µM with UACC-62 melanoma; 7.98 µM in the assay with SN12C renal; 62.8 µM with A498 renal. Further, the GI50 is 17 µM with T-47D breast, 16.6 µM in the assay with HOP-92 NSCLC and more than 100 µM in the assay with UO-31 renal. The TGI was 23 µM in the assay with HOP-62 NSCLC; 16.2 µM in the assay on HCT-116 colon; more than 100 µM in the assay with PC-3 prostate; 31.5 µM in the assay on UACC-62 melanoma; more than 100 µM in the assay with SN12C renal; more than 100 µM with A498 renal. The TGI was 45.2 µM in the assay with T-47D breast, 58.3 µM in the assay on HOP-92 NSCLC and more than 100 µM with UO-31 renal.

`CN1CCN(C(=O)c2c(NC(=O)NS(=O)(=O)c3ccccc3)sc3c2CCCCC3)CC1`: the GI50 with PC-3 prostate is 30.6 µM; in the assay with UACC-62 melanoma, 23 µM; with SN12C renal, 25 µM; in the assay on A498 renal, 28.8 µM; with HOP-92 NSCLC, 27.1 µM; with UO-31 renal, more than 100 µM. The TGI in the assay on PC-3 prostate is more than 100 µM; in the assay with UACC-62 melanoma, 60 µM; in the assay on SN12C renal, 63.8 µM; with A498 renal, 65.8 µM; in the assay with HOP-92 NSCLC, more than 100 µM; with UO-31 renal it was more than 100 µM.

Consider `C[C@]1(C(=O)O)N[C@H](C(=O)O)CS1`, for which the GI50 in the assay with HOP-62 NSCLC, with HCT-116 colon, with PC-3 prostate, with UACC-62 melanoma, in the assay on T-47D breast and with HOP-92 NSCLC was more than 1000 µM each time. In addition, the GI50 in the assay on UO-31 renal and with HT29 colon was more than 1000 µM each time. The TGI in the assay with HOP-62 NSCLC, in the assay with HCT-116 colon, with PC-3 prostate, in the assay with UACC-62 melanoma, in the assay on T-47D breast and with HOP-92 NSCLC was more than 1000 µM each time. Further, the TGI in the assay with UO-31 renal and in the assay on HT29 colon was more than 1000 µM in each case.

`Cc1ccc(-c2cc(=O)c3cc(C)c(C)c(C(=O)O)c3o2)cc1`: the TGI with HOP-62 NSCLC, with HCT-116 colon, in the assay with UACC-62 melanoma, in the assay on SN12C renal, in the assay with A498 renal and with HOP-92 NSCLC was more than 100 µM in each case. Further, the TGI in the assay on UO-31 renal and in the assay with HT29 colon was more than 100 µM in each case.

Consider `COc1ccc(SC2c3ccc(C)cc3Oc3nc(N)c(C#N)c(N)c32)cc1` (stereo not given), for which the GI50 in the assay on HOP-62 NSCLC is 1.71 µM; in the assay with HCT-116 colon it was 1.82 µM; with PC-3 prostate it was 1.6 µM; with UACC-62 melanoma, 1.6 µM; with A498 renal, 1.91 µM; in the assay with T-47D breast, 1.9 µM. The GI50 with HOP-92 NSCLC is 1.84 µM; in the assay with UO-31 renal, 1.39 µM; in the assay with HT29 colon it was 2.31 µM. In addition, the total growth inhibition concentration (TGI) came out at 3.18 µM in the assay on HOP-62 NSCLC; 3.37 µM in the assay on HCT-116 colon; 3.11 µM in the assay on PC-3 prostate; 2.99 µM in the assay on UACC-62 melanoma; 3.44 µM in the assay on A498 renal; 4.63 µM with T-47D breast. The TGI in the assay on HOP-92 NSCLC was determined as 3.55 µM; in the assay on UO-31 renal it was 2.68 µM; in the assay on HT29 colon, 4.83 µM.

With `CN(C)C(=S)/N=c1\ss/c(=N\C(=S)N(C)C)n1-c1ccc(Cl)cc1`, the TGI with HOP-62 NSCLC, with HCT-116 colon, with UACC-62 melanoma, in the assay on SN12C renal, with A498 renal and in the assay on HOP-92 NSCLC was more than 100 µM in each case. In addition, the TGI in the assay with UO-31 renal and in the assay on HT29 colon was more than 100 µM throughout.

On to `CCOc1ccccc1N1C(=O)C(=O)C(c2nc3ccccc3o2)/C(=N\N)C1=O` (stereo not given), for which the TGI with HOP-62 NSCLC, in the assay on HCT-116 colon, in the assay with UACC-62 melanoma, in the assay on SN12C renal, with A498 renal and in the assay on HOP-92 NSCLC was more than 100 µM each time. The TGI in the assay with UO-31 renal is 91 µM; in the assay with HT29 colon, more than 100 µM.

By GI50 is commonly meant the concentration giving 50% growth inhibition. As a reminder, the TGI is the concentration giving total growth inhibition. Lower therefore signals greater sensitivity of the cells.
